Like-named read-outs stand apart in the source and are kept apart here.

This assay deals with T1, E. coli CsgA (Escherichia coli, UniProt P28307).
T1 construct: made in house; host or cells: E. coli NEB 3016 slyD::kan, pET11d
The assay can be described thus: In vitro ThioflavinT assay of CsgA aggregation (CsgA ThT Assay). The settings on record: CsgA 2 μM, white plates; for remaining activity at 25 µM: compound 25 μM; for remaining activity at 100 µM: compound 100 μM. The assay is classed as biochemical. In a few lines: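 Purified C-terminal His-tagged CsgA, monomerised by desalting and 30-kDa filtration, at 2-20 μM with 20-40 μM ThT in 50 mM potassium phosphate pH 7.3, 1% DMSO, compounds 3.125-200 uM; room temperature, fluorescence (ex 438/em 495 nm) read every 15 min. Background-subtracted signal expressed as percent inhibition versus vehicle at 6-6.5 or 8-9 h, or as percent control AUC.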

Setting [1] is: read-out: CsgA ThT Assay (2 μM CsgA) % Control Bmax 25 μM, activity range, class symbol.
Setting [2] is: read-out: CsgA ThT Assay (2 μM CsgA) % Control Bmax 25 μM, mean Bmax as percentage of DMSO control.
The mark [3] stands for this setting: read-out: CsgA ThT Assay (2 μM CsgA) % Control Bmax 100 μM, activity range, class symbol.
Setting [4] is: read-out: CsgA ThT Assay (2 μM CsgA) % Control Bmax 100 μM, mean Bmax as percentage of DMSO control.

T1 sequence (P28307 23-151): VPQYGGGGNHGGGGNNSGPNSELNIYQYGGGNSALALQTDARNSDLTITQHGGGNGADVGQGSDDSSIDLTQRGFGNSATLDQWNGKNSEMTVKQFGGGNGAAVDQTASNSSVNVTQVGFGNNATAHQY

As for `CN1CC(C(=O)O)n2c(c(-c3cccc(C(F)(F)F)c3)c(Cc3cccc4ccccc34)c(C(=O)N3CCOCC3)c2=O)S1(=O)=O` (stereo not shown) [Compound 160, 2-methyl-7-(morpholine-4-carbonyl)-8-(naphthalen-1-ylmethyl)-6-oxo-9-(3-(trifluoromethyl)phenyl)-3,4-dihydro-2H,6H-pyrido[1,2-e][1,2,5] thiadiazine-4-carboxylic acid 1,1-dioxide], the remaining activity at 25 µM is greater than 60% under setting [1] and 101% under setting [2]. Besides, the remaining activity at 100 µM was greater than 60% under setting [3] and 116% under setting [4].
Consider `CCc1c(Cc2cccc3ccccc23)c(-c2cccc(C(F)(F)F)c2)c2n(c1=O)C(C(=O)O)CN2Cc1ccc(OC)cc1` (stereo not shown) [Compound 161, 6-ethyl-1-(4-methoxybenzyl)-7-(naphthalen-1-ylmethyl)-5-oxo-8-(3-(trifluoromethyl)phenyl)-1,2,3,5-tetrahydroimidazo[1,2-a]pyridine-3-carboxylic acid], for which the remaining activity at 25 µM under setting [1] fell in the range of 31 to 60% and the remaining activity at 25 µM under setting [2] was determined as 54%. Also, the remaining activity at 100 µM was 11 to 31% under setting [3] and 29% under setting [4].
The matching figures for `CCCN1CC(C(=O)O)n2c1c(-c1cccc(C(F)(F)F)c1)c(Cc1cccc3ccccc13)c(Cl)c2=O` (stereo not shown) [Compound 162, 6-chloro-7-(naphthalen-1-ylmethyl)-5-oxo-1-propyl-8-(3-(trifluoromethyl)phenyl)-1,2,3,5-tetrahydroimidazo[1,2-a]pyridine-3-carboxylic acid]: 31 to 60%, 34%, 31 to 60% and 49%.
For the molecule `CCCCN1CC(C(=O)O)n2c1c(-c1cccc(C(F)(F)F)c1)c(Cc1cccc3ccccc13)c(Cl)c2=O` (stereo not shown) [Compound 163, 1-butyl-6-chloro-7-(naphthalen-1-ylmethyl)-5-oxo-8-(3-(trifluoromethyl)phenyl)-1,2,3,5-tetrahydroimidazo[1,2-a]pyridine-3-carboxylic acid], the remaining activity at 25 µM runs as follows: under setting [1], 31 to 60%; under setting [2], 33%. The remaining activity at 100 µM was 31 to 60% under setting [3] and 42% under setting [4].
Regarding `CC(C)CN1CC(C(=O)O)n2c1c(-c1cccc(C(F)(F)F)c1)c(Cc1cccc3ccccc13)c(Cl)c2=O` (stereo not shown) [Compound 164, 6-chloro-1-isobutyl-7-(naphthalen-1-ylmethyl)-5-oxo-8-(3-(trifluoromethyl)phenyl)-1,2,3,5-tetrahydroimidazo[1,2-a]pyridine-3-carboxylic acid], the remaining activity at 25 µM under setting [1] was in the range of 31 to 60% and the remaining activity at 25 µM under setting [2] was 52%. Further, the remaining activity at 100 µM under setting [3] is 31 to 60% and the remaining activity at 100 µM under setting [4] amounted to 42%.
For `O=C(O)C1CN(CC2CCCC2)c2c(-c3cccc(C(F)(F)F)c3)c(Cc3cccc4ccccc34)c(Cl)c(=O)n21` (stereo not shown) [Compound 167, 6-chloro-1-(cyclopentylmethyl)-7-(naphthalen-1-ylmethyl)-5-oxo-8-(3-(trifluoromethyl)phenyl)-1,2,3,5-tetrahydroimidazo[1,2-a]pyridine-3-carboxylic acid], the remaining activity at 25 µM under setting [1] was greater than 60% and the remaining activity at 25 µM under setting [2] turned out to be 65%. Besides, the remaining activity at 100 µM reads like this: under setting [3], 31 to 60%; under setting [4], 49%.
Take `N#Cc1cccc(CN2CC(C(=O)O)n3c2c(-c2cccc(C(F)(F)F)c2)c(Cc2cccc4ccccc24)c(Cl)c3=O)c1` (stereo not shown) [Compound 168, 6-chloro-1-(3-cyanobenzyl)-7-(naphthalen-1-ylmethyl)-5-oxo-8-(3-(trifluoromethyl)phenyl)-1,2,3,5-tetrahydroimidazo[1,2-a]pyridine-3-carboxylic acid]: the remaining activity at 25 µM was greater than 60% under setting [1] and 76% under setting [2]. Further, the remaining activity at 100 µM is, setting by setting: under setting [3], 31 to 60%; under setting [4], 47%.

Source of the values: patent US20230131899A1, “INHIBITORS OF MICROBIALLY INDUCED AMYLOID” (Axial Therapeutics, Inc., priority 2020, published 2023).
